Data published in US20020001582A1, “Methods and compositions for inhibiting microbial growth” (priority 1999, published 2002).

Key:
[1] = test system: G. graminis; test: Suppression of fungal disease on young bentgrass, greenhouse trial; assay type: in vivo; settings: 5,000 and 10,000 ppm
Method: (§1) Creeping bentgrass (Agrotis spp.) cv. Penncross was used as the host in the greenhouse trials. This species is widely used in golf greens and is easily managed under greenhouse conditions. Bentgrass was seeded in 6 cm diameter and 5 cm height pots (made from PVC pipes) containing steam sterilized river washed sand. A seeding rate of 0.1 g/pot was used to ensure rapid establishment of a uniform, dense stand. Throughout the experiment, the grass was regularly watered, fertilized and maintained at a cutting height approximately 2.0 cm above the soil surface.
(§2) Virulent isolates of test fungi were grown on a rye grain medium for approximately one week. This medium consisted of 50 g of rye grain, 1 g of CaCO3, and 75 ml of water. It was prepared in a 250 ml Erlenmeyer flask and autoclaved for 30 minutes. Three to five plugs of the actively growing mycelia from week old cultures on potato dextrose agar were transferred into flasks, and incubated in the dark at room temperature.
(§3) Pots of eight-week-old bentgrass were inoculated with the test fungi by placing 2-3 kernels of infected rye in the center of the grass area, just above the soil surface. After inoculation, pots were placed in humidity chambers on a greenhouse bench. Temperature during incubation was maintained at 27-30° C. for disease development and the growth of the test fungi.
(§4) Approximately 1.6-2.4 ml was applied to each pot and the treatment was repeated 24 hours later. Untreated bentgrass was used as a control. All treatments were replicated 8 times and arranged in a completely randomized design. This trial was repeated three times.

[2] = test system: S. homoeocarpa; test: as above; assay type: in vivo
Method: as §1, §2, §3, §4

[3] = test system: Sclerotinia homoeocarpa; test: Suppressive treatment of mature bentgrass (lysozyme 24 and 48 hours after inoculation); assay type: in vivo; settings: day 7, 14 or 21, except 5,000 ppm on day 21
Method: One year old bentgrass (Agrotis spp.) cv Pennlink was used as the host in this trial. It was grown in an open field at Select Sand Farm in Fort Langley, B.C. Round pieces of turfgrass, 6 cm diameter, were cut out and placed on 5 cm high pots (made from PVC pipes) containing steam sterilized river washed sand. The potted grass was regularly watered, fertilized and maintained at a cutting height of approximately 2.0 cm above the soil surface.
The efficacy of egg white lysozyme was tested on Sclerotinia homoeocarpa. Virulent isolates of the test fungi were grown on a rye grain medium for approximately one week. This medium consisted of 50 g of rye grain, 1 g of CaCO3, and 75 ml of water. The medium was prepared in a 250 ml Erlenmeyer flask and autoclaved for 30 minutes. Three to five plugs of the actively growing mycelia from one-week-old culture on potato dextrose agar were transferred into flasks, and incubated in the dark at room temperature.
In a second test three weeks after it was potted, the bentgrass was first inoculated with the test fungi by placing 3 infected rye kernels in the center of the pot, just above the soil surface. After inoculation, the pots were placed in humidity chambers on a greenhouse bench. Temperature during incubation was maintained at 27-30° C. for disease development. […]
Pots were removed from the humidity chamber and evaluated individually for disease severity. […]

[4] = test system: Sclerotinia homoeocarpa; test: Inhibition of Sclerotinia homoeocarpa in potato dextrose broth (area of growth); assay type: cell-based; settings: 2 weeks after the inoculation
Method: Potato dextrose broth was prepared. Fifty ml of the PD broth was added into 100 ml dilution bottles, autoclaved and cooled to room temperature. Various amounts of lysozyme, chitosan, polylysine and avidin were weighed into the bottles. Ten ml of the PD broth with or without the antimicrobials was transferred into sterile petri dishes. A plug of Sclerotinia homoeocarpa (about 6-10 mm square) grown on PD agar was placed into the center of each petri dish. These treatments were all done in triplicates. Fungal growth was monitored by measuring the area of the growth.

[5] = test system: IM080 Botrytis (pepper, BCMAF F24); test: Inhibition of Botrytis by lysozyme in PD broth, % plate coverage; assay type: cell-based; settings: for average fungal growth (% plate coverage): day 14
Method: (§5) Botrytis was grown in petri dishes on PD agar. Potato dextrose broth was prepared, poured into glass dilution bottles (100 ml each), autoclaved and allowed to cool. […] A fungal square (plug) of each culture was cut and placed in/near the center of each plate. Fungal growth was quantified by measuring the diameter of growth of each fungus while it was growing on the liquid media in each petri dish using a ruler. Each treatment was done in triplicate. The experiment was repeated three times (three batches). The observation period for each batch was 2 weeks.
(§6) The fungal growth was expressed in % coverage of the petri dishes by the fungal patches. The calculation is presented in the following equation:
(§7) Fungal growth (%)=(area of fungal patch/total plate area )×100
(§8) The average plate coverage for each treatment was plotted against the time after inoculation (FIGS. 14-19). Statistical analysis was carried out using SigmaStat (Version 2.0, SPSS Science, 1997).

[6] = test system: IM082 Botrytis (blueberry, BCMAF F25); test: as above; assay type: cell-based; settings: for coverage of the petri dishes: day 14
Method: as §5, §6, §7, §8

[7] = test system: IM111 Botrytis (blueberry, BCMAF F27); test: as above; assay type: cell-based; settings: for fungal growth (% plate coverage): day 14
Method: as §5, §6, §7, §8

[8] = test system: IM112 Botrytis cinerea(Pers.); test: as above; assay type: cell-based
Method: as §5, §6, §7, §8

[9] = test system: IM113 Botrytis cinerea(Pers.); test: as above; assay type: cell-based; settings: for fungal growth (% plate coverage): day 14
Method: as §5, §6, §7, §8

[10] = test system: IM188 Botrytis cinerea; test: as above; assay type: cell-based; settings: for fungal growth (% plate coverage): day 14
Method: as §5, §6, §7, §8

“lysozyme: type c egg white lysozyme, enzyme of approximately 129 amino acids; commercially available from Canadian Inovatech, Inc.” was tested, and the “control against G. graminis” value [1] was “good control”, the “S. homoeocarpa inhibition compared to the untreated control” value ([2]; 2,500, 5,000 and 10,000 ppm sprayed 24 and 48 h after inoculation, day 7, 14 and 21) was “significant S. homoeocarpa inhibition” and the “infection compared with bentgrass treated with 2,500 ppm” value ([2]; 5,000 and 10,000 ppm, day 14 and 21 after inoculation) was “significantly less infection”. The “reducing the infection of S. homoeocarpa” value [3] was “not effective”, the “reduction of fungal growth” value ([4]; 1000 ppm) was 35% and the “reduction of fungal growth” value ([4]; 2000 ppm) was “about 55%”. The “Minimum lysozyme usage recommended” value [5] was 250-500 ppm, the “average fungal growth (% plate coverage)” value ([5]; 50 ppm) was 77.7% and the “average fungal growth (% plate coverage)” value ([5]; 100 ppm) was 79.5%. For the same substance, the “fungal growth (% plate coverage) compared to 0, 50 and 100 ppm (Tukey)” value ([5]; 250, 500 and 1000 ppm) was “significantly reduced”, the “average fungal growth (% plate coverage)” value ([5]; 250 ppm) was 38.6% and the “average fungal growth (% plate coverage)” value ([5]; 500 ppm) was 25.7%. For the same substance, the “average fungal growth (% plate coverage)” value ([5]; 1000 ppm) was 20.8%, the “coverage of the petri dishes” value ([6]; 50 ppm) was 65.8% and the “coverage of the petri dishes” value ([6]; 100 ppm) was 59.5%. The “coverage of the petri dishes” value ([6]; 250 ppm) was 36.1%, the “coverage of the petri dishes” value ([6]; 500 ppm) was 19.9% and the “coverage of the petri dishes” value ([6]; 1000 ppm) was 14.4%. For the same substance, the “lowest concentration that significantly reduced the fungal growth” value ([6]; p<0.05) was 50 ppm, the “fungal growth (% plate coverage)” value ([7]; 50 ppm) was 33.7% and the “fungal growth (% plate coverage)” value ([7]; 100 ppm) was 37.8%. For the same substance, the “fungal growth (% plate coverage)” value ([7]; 250 ppm) was 23.5%, the “fungal growth (% plate coverage)” value ([7]; 500 ppm) was 18.0% and the “lowest concentration that significantly reduced the fungal growth” value ([7]; p<0.05) was 50 ppm. For the same substance, the “fungal growth (% plate coverage)” value ([8]; 50 ppm) was 89.4%, the “fungal growth (% plate coverage)” value ([8]; 100 ppm) was 90.0% and the “fungal growth (% plate coverage)” value ([8]; 250 ppm) was 61.5%. The “fungal growth (% plate coverage)” value ([8]; 500 ppm) was 36.2%, the “fungal growth (% plate coverage)” value ([8]; 1000 ppm) was 33.9% and the “concentration required to significantly reduce the growth” value ([8]; p<0.05) was 100 ppm. For the same substance, the “fungal growth (% plate coverage)” value ([9]; 50 ppm) was 96.9%, the “fungal growth (% plate coverage)” value ([9]; 100 ppm) was 90.6% and the “fungal growth (% plate coverage)” value ([9]; 250 ppm) was 65.4%. For the same substance, the “fungal growth (% plate coverage)” value ([9]; 500 ppm) was 43.0%, the “fungal growth (% plate coverage)” value ([9]; 1000 ppm) was 34.7% and the “minimum concentration required to effectively inhibit this strain” value ([9]; p<0.05) was 100 ppm. The “fungal growth (% plate coverage)” value ([10]; 50 ppm) was 87.2%, the “fungal growth (% plate coverage)” value ([10]; 100 ppm) was 86.2% and the “fungal growth (% plate coverage)” value ([10]; 250 ppm) was 34.0%. For the same substance, the “fungal growth (% plate coverage)” value ([10]; 500 ppm) was 16.4%, the “fungal growth (% plate coverage)” value ([10]; 1000 ppm) was 11.3% and the “concentration at which the fungal growth was significantly reduced” value ([10]; p<0.05) was 100 ppm.
